Key:
smallflower flatsedge = test: Test B flood test smallflower flatsedge; assay type: in vivo, Cyperus difformis
In short: (§1)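 Plants were grown to the 2-leaf stage before treatment with test chemical, then held in a greenhouse for twelve to sixteen days. Injury was visually rated against untreated controls on a 0–10 scale, where 0 is no effect and 10 is complete control.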

rape = test: Test B pre/postemergence rape; assay type: in vivo, Brassica napus
In short: (§2)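 Test chemicals in a non-phytotoxic solvent mixture with surfactant were sprayed preemergence onto planted seeds and postemergence onto plants 2 to 18 cm tall (1- to 4-leaf stage). After twelve to sixteen days in a greenhouse, injury was visually rated against untreated controls from 0 (no effect) to 10 (complete control).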

crabgrass = test: Test B pre/postemergence crabgrass; assay type: in vivo, Digitaria sanguinalis
In short: as §2

wheat = test: Test B pre/postemergence wheat; assay type: in vivo, Triticum aestivum
In short: as §2

bedstraw = test: Test B pre/postemergence bedstraw; assay type: in vivo, Galium aparine
In short: as §2

bamyardgrass = test: Test B flood test barnyardgrass; assay type: in vivo, Echinochloa crus-galli
In short: as §1

giant foxtail = test: Test B pre/postemergence giant foxtail; assay type: in vivo, Setaria faberii
In short: as §2

corn = test: Test B pre/postemergence corn; assay type: in vivo, Zea mays
In short: as §2

sugar beet = test: Test B pre/postemergence sugar beet; assay type: in vivo, Beta vulgaris
In short: as §2

surinam grass = test: Test B pre/postemergence surinam grass; assay type: in vivo, Brachiaria decumbens
In short: as §2

blackgrass = test: Test B pre/postemergence blackgrass; assay type: in vivo, Alopecurus myosuroides
In short: as §2

cocklebur = test: Test B pre/postemergence cocklebur; assay type: in vivo, Xanthium strumarium
In short: as §2

rice = test: Test B flood test rice; assay type: in vivo, Oryza sativa
In short: as §1

soybean = test: Test B pre/postemergence soybean; assay type: in vivo, Glycine max
In short: as §2

purple nutsedge = test: Test B pre/postemergence purple nutsedge; assay type: in vivo, Cyperus rotundus
In short: as §2

velvetleaf = test: Test B pre/postemergence velvetleaf; assay type: in vivo, Abutilon theophrasti
In short: as §2

duck salad = test: Test B flood test duck salad; assay type: in vivo, Heteranthera limosa
In short: as §1

[1] = Rate 62 g/ha, headed Pre-emergence (flood test species), scale 0 to 10 (0 no effect, 10 complete control)
[2] = Rate 125 g/ha, Pre-emergence, flood test species, scale 0 to 10 where 0 is no effect and 10 is complete control
[3] = Rate 250 g/ha, Pre-emergence, flood-test species, scale 0 to 10, 0 is no effect, 10 is complete control
[4] = Rate 500 g/ha, Pre-emergence, flood test species, scale 0 to 10 (0 no effect, 10 complete control)
[5] = Preemergence, Rate 62 g/ha, scale of 0 to 10 where 0 is no effect and 10 is complete control
[6] = Preemergence, Rate 250 g/ha, scale of 0 to 10 where 0 is no effect and 10 is complete control
[7] = Preemergence, Rate 500 g/ha, scale of 0 to 10 where 0 is no effect and 10 is complete control
[8] = Rate 62 g/ha, Postemergence, scale 0 to 10 (0 no effect, 10 complete control)
[9] = Rate 125 g/ha, Postemergence, scale of 0 to 10 where 0 is no effect and 10 is complete control
[10] = Rate 250 g/ha, Postemergence, scale of 0 to 10 where 0 is no effect and 10 is complete control
[11] = Rate 500 g/ha, Postemergence, scale 0 to 10, 0 no effect, 10 complete control

Structure (SMILES): CSCCn1c(=O)on(C(=O)N(c2ccc(F)cc2)C(C)C)c1=O [Compound 314]
- S. Flatsedge plant response rating (smallflower flatsedge; [1]): 0
- S. Flatsedge plant response rating (smallflower flatsedge; [2]): 0
- S. Flatsedge plant response rating (smallflower flatsedge; [3]): 0
- S. Flatsedge plant response rating (smallflower flatsedge; [4]): 0
- Rape plant response rating (rape; [5]): 0
- Rape plant response rating (rape; [6]): 3
- Rape plant response rating (rape; [7]): 7
- Rape plant response rating (rape; [8]): 0
- Rape plant response rating (rape; [9]): 0
- Plant response rating, Rape (rape; [10]): 0
- Crabgrass plant response rating (crabgrass; [5]): 1
- Crabgrass plant response rating (0 to 10 scale) (crabgrass; Preemergence, Rate 125 g/ha): 3
- Crabgrass plant response rating (crabgrass; [6]): 7
- Crabgrass plant response rating (crabgrass; [7]): 8
- Crabgrass plant response rating (crabgrass; [8]): 0
- Crabgrass plant response rating (crabgrass; [9]): 0
- Plant response rating, Crabgrass (crabgrass; [10]): 4
- Wheat plant response rating (wheat; [5]): 0
- Wheat plant response rating (0 to 10 scale) (wheat; Preemergence, Rate 125 g/ha): 0
- Wheat plant response rating (wheat; [6]): 0
- Wheat plant response rating (wheat; [7]): 3
- Wheat plant response rating (wheat; [8]): 0
- Wheat plant response rating (wheat; [9]): 0
- Plant response rating, Wheat (wheat; [10]): 3
- Bedstraw plant response rating (bedstraw; [5]): 0
- Bedstraw plant response rating (0 to 10 scale) (bedstraw; Preemergence, Rate 125 g/ha): 0
- Bedstraw plant response rating (bedstraw; [6]): 0
- Bedstraw plant response rating (bedstraw; [7]): 3
- Bedstraw plant response rating (bedstraw; [8]): 2
- Bedstraw plant response rating (bedstraw; [9]): 4
- Barnyardgrass plant response rating (bamyardgrass; [1]): 0
- Barnyardgrass plant response rating (bamyardgrass; [2]): 0
- Barnyardgrass plant response rating (bamyardgrass; [3]): 0
- Barnyardgrass plant response rating (bamyardgrass; [4]): 0
- Giant foxtail plant response rating (giant foxtail; [5]): 3
- Giant foxtail plant response rating (0 to 10 scale) (giant foxtail; Preemergence, Rate 125 g/ha): 6
- Giant foxtail plant response rating (giant foxtail; [6]): 7
- Giant foxtail plant response rating (giant foxtail; [7]): 10
- Giant foxtail plant response rating (giant foxtail; [8]): 0
- Giant foxtail plant response rating (giant foxtail; [9]): 0
- Plant response rating, Giant foxtail (giant foxtail; [10]): 3
- Corn plant response rating (corn; [5]): 0
- Corn plant response rating (0 to 10 scale) (corn; Preemergence, Rate 125 g/ha): 0
- Corn plant response rating (corn; [6]): 0
- Corn plant response rating (corn; [7]): 0
- Corn plant response rating (corn; [8]): 0
- Corn plant response rating (corn; [9]): 0
- Plant response rating, Corn (corn; [10]): 0
- Corn plant response rating (corn; [11]): 0
- Sugarbeets plant response rating (sugar beet; [5]): 0
- Sugarbeets plant response rating (0 to 10 scale) (sugar beet; Preemergence, Rate 125 g/ha): 2
- Sugarbeets plant response rating (sugar beet; [6]): 2
- Sugarbeets plant response rating (sugar beet; [7]): 6
- Sugarbeets plant response rating (sugar beet; [8]): 0
- Sugarbeets plant response rating (sugar beet; [9]): 0
- Plant response rating, Sugarbeets (sugar beet; [10]): 0
- B. signalgrass plant response rating (surinam grass; [5]): 0
- B. signalgrass plant response rating (0 to 10 scale, 0 is no effect, 10 is complete control) (surinam grass; Preemergence, Rate 125 g/ha): 2
- B. signalgrass plant response rating (surinam grass; [6]): 6
- B. signalgrass plant response rating (surinam grass; [7]): 6
- B. signalgrass plant response rating (surinam grass; [8]): 0
- B. signalgrass plant response rating (surinam grass; [9]): 0
- Plant response rating, B. signalgrass (surinam grass; [10]): 0
- B. signalgrass plant response rating (surinam grass; [11]): 3
- Blackgrass plant response rating (blackgrass; [5]): 5
- Blackgrass plant response rating (0 to 10 scale) (blackgrass; Preemergence, Rate 125 g/ha): 7
- Blackgrass plant response rating (blackgrass; [6]): 10
- Blackgrass plant response rating (blackgrass; [7]): 10
- Blackgrass plant response rating (blackgrass; [8]): 2
- Blackgrass plant response rating (blackgrass; [9]): 4
- Plant response rating, Blackgrass (blackgrass; [10]): 5
- Blackgrass plant response rating (blackgrass; [11]): 5
- Cocklebur plant response rating (cocklebur; [5]): 0
- Cocklebur plant response rating (0 to 10 scale) (cocklebur; Preemergence, Rate 125 g/ha): 0
- Cocklebur plant response rating (cocklebur; [6]): 0
- Cocklebur plant response rating (cocklebur; [7]): 0
- Cocklebur plant response rating (cocklebur; [8]): 0
- Plant response rating, Cocklebur (cocklebur; [10]): 1
- Cocklebur plant response rating (cocklebur; [11]): 1
- Rice plant response rating (rice; [1]): 0
- Rice plant response rating (rice; [2]): 0
- Rice plant response rating (rice; [3]): 0
- Rice plant response rating (rice; [4]): 0
- Soybean plant response rating (soybean; [5]): 0
- Soybean plant response rating (0 to 10 scale) (soybean; Preemergence, Rate 125 g/ha): 0
- Soybean plant response rating (soybean; [6]): 0
- Soybean plant response rating (soybean; [7]): 0
- Soybean plant response rating (soybean; [8]): 2
- Soybean plant response rating (soybean; [9]): 3
- Plant response rating, Soybean (soybean; [10]): 4
- Nutsedge plant response rating (purple nutsedge; [5]): 0
- Nutsedge plant response rating (purple nutsedge; [7]): 0
- Nutsedge plant response rating (purple nutsedge; [8]): 0
- Nutsedge plant response rating (purple nutsedge; [9]): 0
- Plant response rating, Nutsedge (purple nutsedge; [10]): 0
- Velvetleaf plant response rating (velvetleaf; [5]): 0
- Velvetleaf plant response rating (0 to 10 scale) (velvetleaf; Preemergence, Rate 125 g/ha): 0
- Velvetleaf plant response rating (velvetleaf; [6]): 3
- Velvetleaf plant response rating (velvetleaf; [7]): 5
- Velvetleaf plant response rating (velvetleaf; [8]): 0
- Velvetleaf plant response rating (velvetleaf; [9]): 0
- Plant response rating, Velvetleaf (velvetleaf; [10]): 0
- Ducksalad plant response rating (duck salad; [1]): 0
- Ducksalad plant response rating (duck salad; [2]): 0
- Ducksalad plant response rating (duck salad; [3]): 0
- Ducksalad plant response rating (duck salad; [4]): 0

From patent publication US6737383B1, “Herbicidal oxadiazolidines” (priority 1999, dated 2004)
